{"source": "patent US8999970B2", "about": "“Administration of an anti-obesity compound to individuals with renal impairment” (Arena Pharmaceuticals, Inc., priority 2010, dated 2015)", "assay": "Pivotal phase 3 clinical trial program (weight loss)", "type": "in vivo, human", "text": "(§1) In December 2009, Arena Pharmaceuticals submitted a New Drug Application, or NDA, for lorcaserin to the FDA. The NDA submission is based on an extensive data package from lorcaserin's clinical development program that includes 18 clinical trials totaling 8,576 patients. […] About two-thirds of patients achieved at least 5% weight loss and over one-third achieved at least 10% weight loss. On average, patients lost 17 to 18 pounds or about 8% of their weight. Secondary endpoints, including body composition, lipids, cardiovascular risk factors and glycemic parameters improved compared to placebo. In addition, heart rate and blood pressure went down. […] Lorcaserin improved quality of life, and there was no signal for depression or suicidal ideation. The only adverse event that exceeded the placebo rate by 5% was generally mild or moderate, transient headache. Based on a normal BMI of 25, patients in the first phase 3 trial lost about one-third of their excess body weight. The average weight loss was 35 pounds or 16% of body weight for the top quartile of patients in the second phase 3 trial.\nas §1, with “Heart” for “In addition, heart”", "key": {"[1]": {"details": "phase 3 program, treated for up to two years"}}}
{"smiles": "C[C@H]1CNCCc2ccc(Cl)cc21", "note": "[Lorcaserin, (R)-8-chloro-1-methyl-2,3,4,5-tetrahydro-1H-3-benzazepine]", "values": [{"measurement": "Excess body weight lost", "setting": "first phase 3 trial, based on a normal BMI of 25", "result": "about one-third"}, {"measurement": "Average weight lost, of their weight", "setting": "phase 3 program", "result": "about 8%"}, {"measurement": "Risk of cardiac valvulopathy", "setting": "phase 3 program", "result": "did not increase the risk"}, {"measurement": "Patients who achieved at least 5% weight loss", "setting": "[1]", "result": "About two-thirds"}, {"measurement": "Patients who achieved at least 10% weight loss", "setting": "[1]", "result": "over one-third"}, {"measurement": "Average weight loss, top quartile of patients", "setting": "second phase 3 trial", "result": 35, "unit": "pounds"}, {"measurement": "Average weight loss, top quartile of patients, of body weight", "setting": "second phase 3 trial", "result": 16, "unit": "%"}]}
